Among the data in ChEMBL document CHEMBL1201862, “PubChem BioAssay data set” (2004) are EC50 and AC50 values, retold here.

The EC50 is the concentration giving half of the maximal effect. Broadly, the AC50 is the midpoint of the concentration-response curve, whichever way the signal moves.

Assay [1] is described as follows: NIH3T3 cell viability loss – ATP luminescence, mouse fibroblasts, counter-screen, dose response (AID 2010).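 Further: cells exposed to compound for about 90 hours before reading.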 The assay is classed as functional, cell-based. (The purpose of a counterscreen is to sort out artefacts and off-target activity.)
Assay [2] is described as follows: Trypanosoma cruzi growth suppression in host cells – NIH3T3 host cells, beta-gal luminescence, confirmation (AID 2044).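 Further: intracellular parasites grown in NIH/3T3 mouse fibroblasts as host cells; luminescent beta-galactosidase reporter signal from transgenic T. cruzi replicating inside host cells; inhibitors lower the luminescence signal.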 The assay is classed as functional, cell-based.
The target of assay [3] is T1, Cytochrome P450 1A2 (Homo sapiens, UniProt P05177).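 Further: PubChem cytochrome P450 panel assay, CYP1A2 panel member.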
T1 sequence (P05177 whole entry): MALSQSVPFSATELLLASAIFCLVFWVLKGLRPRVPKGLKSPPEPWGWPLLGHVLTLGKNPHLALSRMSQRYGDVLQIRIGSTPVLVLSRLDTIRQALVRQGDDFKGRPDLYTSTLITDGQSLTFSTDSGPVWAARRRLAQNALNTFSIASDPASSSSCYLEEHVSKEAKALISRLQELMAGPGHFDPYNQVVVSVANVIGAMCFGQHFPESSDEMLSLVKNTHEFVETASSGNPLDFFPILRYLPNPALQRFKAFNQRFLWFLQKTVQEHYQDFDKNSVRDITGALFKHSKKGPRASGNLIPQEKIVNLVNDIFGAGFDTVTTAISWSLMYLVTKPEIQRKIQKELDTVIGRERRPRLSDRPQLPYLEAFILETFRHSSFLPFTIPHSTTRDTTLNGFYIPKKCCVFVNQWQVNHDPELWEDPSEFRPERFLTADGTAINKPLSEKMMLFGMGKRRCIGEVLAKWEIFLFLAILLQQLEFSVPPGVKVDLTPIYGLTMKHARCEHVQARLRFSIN

The target of assay [4] is Cytochrome P450 2D6 (Homo sapiens, UniProt P10635).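 Further: CYP2D6 member of a cytochrome P450 panel assay.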
Cytochrome P450 2D6, sequence (P10635 whole entry): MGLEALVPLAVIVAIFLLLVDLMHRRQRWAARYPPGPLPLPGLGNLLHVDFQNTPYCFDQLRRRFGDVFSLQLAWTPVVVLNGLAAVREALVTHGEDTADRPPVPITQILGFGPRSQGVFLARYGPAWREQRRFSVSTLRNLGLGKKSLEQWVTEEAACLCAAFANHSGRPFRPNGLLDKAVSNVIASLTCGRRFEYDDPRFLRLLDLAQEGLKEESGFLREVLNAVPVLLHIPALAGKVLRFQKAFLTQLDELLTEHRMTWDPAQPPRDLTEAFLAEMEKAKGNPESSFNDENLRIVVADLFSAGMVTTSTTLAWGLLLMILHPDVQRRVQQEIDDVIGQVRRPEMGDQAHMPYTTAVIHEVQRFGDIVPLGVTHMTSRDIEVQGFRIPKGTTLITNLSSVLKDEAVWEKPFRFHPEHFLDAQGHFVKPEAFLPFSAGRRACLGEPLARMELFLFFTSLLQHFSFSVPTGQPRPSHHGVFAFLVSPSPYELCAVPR
Assay [5] has as its target Cytochrome P450 2C9 (Homo sapiens, UniProt P11712).

Several values for one entry are separate records, joined by “and”; a condition that tells them apart may be missing. Identical values can stand only once. Activity calls are given as the source filed them.

Cytochrome P450 2C9, sequence (P11712 whole entry): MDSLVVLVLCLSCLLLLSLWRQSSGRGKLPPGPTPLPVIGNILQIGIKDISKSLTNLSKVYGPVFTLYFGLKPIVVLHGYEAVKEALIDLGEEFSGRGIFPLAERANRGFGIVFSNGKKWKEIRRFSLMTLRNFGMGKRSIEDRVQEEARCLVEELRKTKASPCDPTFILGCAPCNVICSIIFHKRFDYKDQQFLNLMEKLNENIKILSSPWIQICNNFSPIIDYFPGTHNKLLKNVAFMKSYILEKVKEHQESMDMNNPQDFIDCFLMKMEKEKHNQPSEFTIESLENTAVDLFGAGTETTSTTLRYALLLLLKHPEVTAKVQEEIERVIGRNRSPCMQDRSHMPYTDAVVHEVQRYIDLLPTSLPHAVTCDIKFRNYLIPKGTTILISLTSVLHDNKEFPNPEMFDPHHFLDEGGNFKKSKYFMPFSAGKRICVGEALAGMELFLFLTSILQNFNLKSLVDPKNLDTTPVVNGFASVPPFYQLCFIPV

Regarding `O=C(Nc1ccccc1C(=O)O)c1cc(S(=O)(=O)N2CCCCC2)c(Cl)cc1Cl`, the EC50 in assay [1] was 14 µM (active); in assay [2], 3.6 µM (active).
Take `CC(C)OC(=O)c1cc2c(ccn2C)n1CC(=O)N1CCC(Cc2ccccc2)CC1`: the results for the AC50 in assay [3] and in assay [4] were 25.1 µM (inconclusive) and 20 µM (inconclusive), respectively.
Take `CCOC(=O)N1CCC(N2CCCC(C(=O)c3cc(F)ccc3OC)C2)CC1` (stereo not given): the EC50 is > 60 µM (not active) in assay [1] and 2.66 µM (active) in assay [2].
For the compound `O=C(c1cnccn1)N1CCC[C@@]2(CCN(c3ccccc3)C2)C1`, in assay [3], the AC50 was 15.8 µM (inconclusive).
On to `c1ccc(Cc2ccc(OCCCNC3CCCC3)cc2)cc1`, for which the EC50 in assay [1] is > 30 µM (not active); in assay [2], 0.781 µM (active).
For the compound `OCCC1CN(Cc2ccc3nonc3c2)CCN1Cc1ccsc1` (stereo not given), the results for the EC50 in assay [1] and in assay [2] were > 60 µM (not active) and 0.452 µM (active), respectively.
As to `O=C(Nc1ccncc1)c1ccc(Cl)c(Cl)c1`, the EC50 was > 30 µM (not active) in assay [1] and 0.472 µM (active) in assay [2].
For `Cc1ccc(CNC(=O)c2nnn(-c3cccc(C)c3)c2N)cc1`, the AC50 in assay [5] and in assay [4] was 39.8 µM (inconclusive) in each case.
Turning to `CSc1ccc(CN(C)CCc2ccccn2)cc1`, the EC50 in assay [1] is > 30 µM (not active); in assay [2], 0.143 µM (active).
With `Cn1c(C(=O)OC(C(=O)NC2CCCCC2)c2ccncc2)cc2sccc21` (stereo not given), the EC50 in assay [1] and in assay [2] was > 30 µM (not active) in each case.
Consider `COCCn1c(=O)c(-c2cccc(C#N)c2)nc2cnc(N3CCOCC3)nc21`, for which the values for the AC50 in assay [5] and in assay [3] were 12.6 µM (inconclusive) and 10 µM (inconclusive), respectively.
In the case of `CC(C)NC[C@@H](O)COc1ccc(CCOCC2CC2)cc1`, the AC50 in assay [3] was 15.8 µM (inconclusive) and 12.6 µM (inconclusive).
On to `O=C1C2Sc3nc(O)sc3C(c3ccccc3)C2C(=O)N1c1ccc(Cl)cc1` (stereo not given), for which the AC50 in assay [4] was 22.4 µM (inconclusive).
For the compound `O=C(N/N=C/c1ccc([N+](=O)[O-])o1)C(O)c1ccccc1` (stereo not given), the figures for the EC50 in assay [1] and in assay [2] were > 60 µM (not active) and 0.565 µM (active), respectively.
`COc1ccc2[nH]cc(CCNc3ccnc(-c4cccnc4)n3)c2c1`: the AC50 in assay [5] is 0.794 µM (inconclusive).
Consider `O=C(c1cc(C(F)(F)F)cc(C(F)(F)F)c1)N1CCC[C@@]2(CCN(c3ccccn3)C2)C1`, for which the results for the AC50 in assay [3] and in assay [4] were 25.1 µM (inconclusive) and 20 µM (inconclusive), respectively.
`CCN1CCN(CC(=O)N2CCCC(C(=O)c3ccc(Oc4ccccc4)cc3)C2)CC1` (stereo not given): the values for the concentration giving a half-maximal response (EC50) in assay [1] and in assay [2] were > 30 µM (not active) and 0.478 µM (active), respectively.
Take `COc1ccc(-n2c(=O)c(-c3ccc(Cl)cc3)nc3cnc(N4CCOCC4)nc32)cc1`: the AC50 in assay [5] is 31.6 µM (inconclusive).
Turning to `CC(=O)Nc1ccc(Cc2ccc3nc(O)cc(C)c3c2)cc1`, in assay [5], the AC50 is 6.31 µM (inconclusive).
`CCN(CC)CCCOC(=O)c1ccc(OC)cc1O`: the EC50 in assay [1] was > 60 µM (not active); in assay [2] it was 0.743 µM (active).
Take `CCCNC(=O)OC[C@@H]1O[C@H](CCO/N=C(\C)CCN2CCCCc3nc(C)c(C)cc32)C=C[C@@H]1Oc1ccc(OC)cc1`: the AC50 in assay [5] was 3.98 µM (inconclusive); in assay [4], 2.51 µM (inconclusive).
Turning to `COc1cccc(-c2cncnc2NCc2cccs2)c1`, the AC50 in assay [4] is 20 µM (inconclusive).
With `COc1cc(O)oc1/C=N/c1ccc(C(F)(F)F)cc1`, the AC50 is 17.8 µM (inconclusive) in assay [5] and 15.8 µM (inconclusive) in assay [4].
As for `COc1ccccc1CNc1ncnc2ccc(-c3ccc4c(c3)OCO4)cc12`, in assay [5], the AC50 was 0.398 µM (inconclusive).
With `CCCCC(=O)Nc1cc(OCC)c(NC(=O)c2ccccc2[N+](=O)[O-])cc1OCC`, the AC50 in assay [3] was 14.1 µM (inconclusive).
As for `O=S(=O)(c1ccccc1)N1CCC[C@@]2(CCN(C(c3ccccc3)c3ccccc3)C2)C1`, the AC50 in assay [5] is 10 µM (inconclusive).
Regarding `CC(Oc1ccc(-c2ccccc2)cc1)C(=O)O` (stereo not given), the AC50 in assay [5] is 39.8 µM (inconclusive); in assay [3] it was 25.1 µM (inconclusive).
`O=C(C[N+]1(c2ccccc2)CCOCC1)c1ccccc1`: the AC50 in assay [5] is 6.31 µM (inconclusive).
Consider `COc1ccc(C2SCC(=O)N2CC23CC4CC(CC(C4)C2)C3)cc1` (stereo not given), for which the EC50 was > 60 µM (not active) in assay [1] and 2.87 µM (active) in assay [2].
With `CCOc1ccccc1Nc1nc(-c2sc(NC(=O)c3ccccc3)nc2C)cs1`, the values for the half-maximal activity concentration (AC50) in assay [3] and in assay [4] were 6.31 µM (inconclusive) and 20 µM (inconclusive), respectively.
On to `Clc1ccc2[nH]cc(-c3nnnn3-c3ccc4ccccc4c3)c2c1`, for which the EC50 in assay [1] was > 60 µM (not active); in assay [2], 1.97 µM (active).
Taken in the same sequence, the figures for `CCN1CCCc2cc(CN(CCN3CCOCC3)C(S)=Nc3cccc(C)c3)ccc21` were > 60 µM (not active) and 1.62 µM (active).
In the case of `CCN1CCN(c2ccc(NC(=O)C(C)C)cc2Cl)CC1`, the AC50 in assay [4] is 14.1 µM (inconclusive).
With `Cc1nn(-c2ccc([N+](=O)[O-])cc2)c2c1C(c1cccc(Br)c1)N1C(=N2)C(=O)Nc2ccccc21` (stereo not given), the EC50 in assay [1] is > 60 µM (not active); in assay [2], 2.13 µM (active).
For `CN(C)C(=O)c1ccc(-c2cncnc2NC2CCNCC2)cc1`, in assay [3], the AC50 is 25.1 µM (inconclusive).
Take `CCN(CC)CCNC(=O)c1ccc(Cl)c(S(=O)(=O)Nc2ccccc2OC)c1`: the AC50 in assay [5] is 12.6 µM (inconclusive).
On to `COC(=O)Cn1c(C(=O)N2CCCC2)cc2c1C[C@H]1CN(C(=O)c3ccccc3)[C@@](Cc3ccc(F)cc3)(C(=O)OC)[C@@H]21`, for which the half-maximal activity concentration (AC50) in assay [3] was 15.8 µM (inconclusive).
With `Cn1c(=O)c([N+](=O)[O-])c(NCCc2ccccc2)c2ccccc21`, the EC50 is > 60 µM (not active) in assay [1] and 0.554 µM (active) in assay [2].
Consider `CSc1cc(C)nc(NC(C)=O)n1`, for which the values for the AC50 in assay [5] and in assay [3] were 3.16 µM (inconclusive) and 1.26 µM (inconclusive), respectively.
In the case of `COc1cc(CN2CCCC(C(=O)Nc3cccc(-n4cccn4)c3)C2)ccc1F` (stereo not given), the EC50 was > 60 µM (not active) in assay [1] and 0.194 µM (active) in assay [2].
Regarding `N#Cc1cccc(NC(=O)N2CCCC3(CCN(C(=O)c4cccc(F)c4)CC3)C2)c1`, the AC50 was 31.6 µM (inconclusive) in assay [5], 12.6 µM (inconclusive) in assay [3] and 39.8 µM (inconclusive) in assay [4].
Take `Cc1[nH]c2ccc(F)cc2c1CCN(Cc1cccnc1)C(S)=Nc1ccccc1`: the EC50 in assay [1] is > 60 µM (not active); in assay [2], 0.953 µM (active).
Turning to `Cc1ccc(S(=O)(=O)c2nc(S(=O)(=O)c3ccc(C)cc3)c(NCc3ccco3)s2)cc1`, the AC50 in assay [5] is 5.62 µM (inconclusive).
For the compound `CCOC(=O)NC(=O)CSc1nc2cc(OCC)ccc2[nH]1`, in assay [4], the AC50 is 0.562 µM (inconclusive).
Take `CCCCSC(=S)N(C)C1CCS(=O)(=O)C1` (stereo not given): the AC50 in assay [3] is 25.1 µM (inconclusive).
As to `Cc1cc(C(=O)N/N=C/c2cccc(OC(=O)c3ccco3)c2)[nH]n1`, the AC50 in assay [3] was 22.4 µM (inconclusive).
As to `Cc1cccc(CNc2cc(-c3c(C)noc3C)ncn2)c1`, in assay [4], the AC50 was 31.6 µM (inconclusive).
Consider `C/C(CCC(=O)OC[C@@H]1O[C@H](C#Cc2ccccc2)C=C[C@@H]1Oc1ccc(C)cc1)=N/O[C@@H](C)CN1CCCc2nc(C)c(C)cc21`, for which the AC50 in assay [5] is 2.51 µM (inconclusive).
Turning to `CC(C)(C)c1cc(/C=C(\C#N)C(N)=S)cc(C(C)(C)C)c1O` [TYRPHOSTIN AG 879], in assay [4], the AC50 is 39.8 µM (inconclusive).
For `Clc1ccc2c(N3CCC(CCC4CCN(c5ncnc6cc(Cl)ccc56)CC4)CC3)ncnc2c1`, in assay [3], the AC50 was 3.16 µM (inconclusive).
`COc1ccc(-c2ccc3c(n2)CCCN3C[C@H](O)CN2CCCc3nc(C)c(C)cc32)cc1`: the AC50 in assay [4] was 3.16 µM (inconclusive).
On to `CCOC(=O)C(C)Sc1nnc(CNC(=O)c2ccc(OC)cc2)n1C1CCCCC1` (stereo not given), for which, in assay [5], the AC50 is 15.8 µM (inconclusive).
